As a reminder, the pIC50 is the IC50 on a negative log10 scale, so that one unit is a factor of ten. Lower therefore signals a large IC50.

pIC50: −log10 of the molar value.

In patent US8030344B2, “Inhibitors of histone deacetylase” (MethylGene Inc., priority 2007, dated 2011) one finds IC50 data, which are given here for 25 molecules.

One experiment has as its target HDAC-1 (Homo sapiens, UniProt Q13547). The experiment in a line: Inhibition of histone deacetylase enzymatic (HDAC-1) activity, Boc-Lys(Ac)-AMC fluorescence assay. It is filed as biochemical. Here is the method:
Inhibition of Histone Deacetylase Enzymatic (HDAC-1) Activity
(§1) The following protocol is used to assay the compounds of the invention. In the assay, the buffer used is 25 mM HEPES, pH 8.0, 137 mM NaCl, 2.7 mM KCl, 1 mM MgCl2 and the substrate is Boc-Lys(Ac)-AMC in a 50 mM stock solution in DMSO. The enzyme stock solution is 4.08 μg/mL in buffer.
(§2) The compounds are pre-incubated (2 μl in DMSO diluted to 13 μl in buffer for transfer to assay plate) with enzyme (20 μl of 4.08 μg/ml) for 10 minutes at room temperature (35 μl pre-incubation volume). The mixture is pre-incubated for 5 minutes at room temperature. The reaction is started by bringing the temperature to 37° C. and adding 15 μl substrate. Total reaction volume is 50 μl. The reaction is stopped after 20 minutes by addition of 50 μl developer, prepared as directed by Biomol (Fluor-de-Lys developer, Cat. # KI-105). A plate is incubated in the dark for 10 minutes at room temperature before reading (λEx=360 nm, λEm=470 nm, Cutoff filter at 435 nm). Similar assays are performed to measure HDAC-2 inhibitory activity

Another experiment has as its target HDAC-2 (Homo sapiens, UniProt Q92769). The experiment in a line: Similar assay measuring HDAC-2 inhibitory activity. It is filed as biochemical. The protocol:
as §1, §2

Another experiment deals with HCT116 cells. The experiment in a line: MTT assay on HCT116 cells. It is filed as cell-based. As to conditions: 72 hours incubation, concentration reducing cell numbers to 50% of solvent treated cells. The protocol: (§3) HCT116 cells (2000/well) are plated into 96-well tissue culture plates one day before compound treatment. Representative compounds at various concentrations were added to the cells. The cells are incubated for 72 hours at 37° C. in 5% CO2 incubator. MTT (3-[4,5-dimethylthiazol-2-yl]-2,5 diphenyl tetrazolium bromide, Sigma) is added at a final concentration of 0.5 mg/ml and incubated with the cells for 4 hours before one volume of solubilization buffer (50% N,N-dimethylformamide, 20% SDS, pH 4.7) is added onto the cultured cells. After overnight incubation, solubilized dye is quantified by calorimetric reading at 570 nM using a reference at 630 nM. OD values are converted to cell numbers according to a standard growth curve of the relevant cell line. The concentration which reduces cell numbers to 50% of that of solvent treated cells is determined as MTT IC50. A similar assay is performed on HMEC cells.
(In general: Tetrazolium assays rely on reduction of a dye to a coloured formazan, in cell work by metabolically active cells.)

The test system of another experiment is HMEC cells. The experiment in a line: MTT assay on HMEC cells. Particulars: similar MTT assay on HMEC cells. It is filed as cell-based. The protocol: as §3

Sequence of HDAC-1 (Q13547 whole entry): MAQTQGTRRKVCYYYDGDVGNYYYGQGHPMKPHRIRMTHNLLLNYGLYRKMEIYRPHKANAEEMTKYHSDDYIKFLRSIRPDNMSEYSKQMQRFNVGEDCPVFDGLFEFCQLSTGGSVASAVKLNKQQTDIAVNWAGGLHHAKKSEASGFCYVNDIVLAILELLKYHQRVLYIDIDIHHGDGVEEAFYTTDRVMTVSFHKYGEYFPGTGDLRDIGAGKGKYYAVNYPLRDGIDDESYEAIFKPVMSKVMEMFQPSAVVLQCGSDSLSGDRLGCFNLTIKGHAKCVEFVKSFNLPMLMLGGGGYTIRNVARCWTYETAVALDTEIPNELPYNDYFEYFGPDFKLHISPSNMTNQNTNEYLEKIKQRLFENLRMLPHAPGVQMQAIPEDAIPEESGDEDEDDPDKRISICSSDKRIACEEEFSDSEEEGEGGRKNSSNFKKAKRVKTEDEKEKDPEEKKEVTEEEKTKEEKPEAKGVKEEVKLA
Sequence of HDAC-2 (Q92769 whole entry): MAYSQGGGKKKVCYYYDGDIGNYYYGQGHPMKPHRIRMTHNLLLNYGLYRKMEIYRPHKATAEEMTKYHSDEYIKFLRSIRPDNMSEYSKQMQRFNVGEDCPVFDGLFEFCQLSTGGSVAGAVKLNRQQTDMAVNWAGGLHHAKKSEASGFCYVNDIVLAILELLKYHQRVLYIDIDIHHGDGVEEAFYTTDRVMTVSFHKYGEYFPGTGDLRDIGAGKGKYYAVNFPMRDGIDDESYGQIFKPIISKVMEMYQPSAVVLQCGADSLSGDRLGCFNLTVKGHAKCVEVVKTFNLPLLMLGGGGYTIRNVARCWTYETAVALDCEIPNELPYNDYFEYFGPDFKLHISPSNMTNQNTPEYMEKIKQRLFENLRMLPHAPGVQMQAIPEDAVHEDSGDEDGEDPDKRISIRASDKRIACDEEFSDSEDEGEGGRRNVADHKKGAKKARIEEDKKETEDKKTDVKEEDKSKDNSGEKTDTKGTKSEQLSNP

In the case of `CN(C)CCOC(=O)N[C@H]1CCN(c2ccc(C(=O)Nc3ccccc3N)cc2)C1` [Compound 119, (S)-2-(Dimethylamino)ethyl-1-(4-(2-aminophenylcarbamoyl) -phenyl)pyrrolidin-3-ylcarbamate], the negative logarithm of the IC50 (pIC50) against HDAC-1 was not below 6.30; at HDAC-2, not below 6.30; with HCT116 cells (Homo sapiens, HCT-116), not below 6.00; in the experiment with HMEC cells (Homo sapiens), less than 4.30.

Take `COC(=O)N[C@H]1CCN(c2ccc(C(=O)Nc3ccccc3N)cc2)C1` [Compound 120, (S)-Methyl 1-(4-(2-aminophenylcarbamoyl)phenyl)pyrrolidin-3-yl carbamate]: the pIC50 against HDAC-1 is not below 6.30; on HDAC-2, not below 6.30; with HMEC cells (Homo sapiens), less than 4.30.

Turning to `CCOC(=O)N[C@H]1CCN(c2ccc(C(=O)Nc3ccccc3N)cc2)C1` [Compound 121, (S)-Ethyl 1-(4-(2-aminophenylcarbamoyl)phenyl)pyrrolidin-3-yl carbamate], the pIC50 was not below 6.30 on HDAC-1, not below 6.30 at HDAC-2, not below 6.00 with HCT116 cells and not below 4.30 with HMEC cells.

Turning to `CC(C)(C)OC(=O)N[C@H]1CCN(c2ccc(C(=O)Nc3ccccc3N)cc2)C1` [Compound 122, (S)-tert-Butyl 1-(4-(2-aminophenylcarbamoyl)phenyl)pyrrolidin-3-yl carbamate], the negative logarithm of the IC50 (pIC50) on HDAC-1 is not below 6.30; against HDAC-2 it was not below 6.30; with HCT116 cells (Homo sapiens, HCT-116) it was not below 6.00; with HMEC cells (Homo sapiens), not below 4.30.

With `CC(C)COC(=O)N[C@H]1CCN(c2ccc(C(=O)Nc3ccccc3N)cc2)C1` [Compound 123, (S)-Isobutyl 1-(4-(2-aminophenylcarbamoyl)phenyl)pyrrolidin-3-yl carbamate], the pIC50 on HDAC-1 was not below 6.30; on HDAC-2, not below 5.30; in the experiment on HCT116 cells (Homo sapiens, HCT-116) it was not below 6.30; in the experiment on HMEC cells (Homo sapiens), not below 4.30.

Consider `Nc1ccccc1NC(=O)c1ccc(N2CC[C@H](NC(=O)OCc3ccccc3)C2)cc1` [Compound 124, (S)-Benzyl 1-(4-(2-aminophenylcarbamoyl)phenyl)pyrrolidin-3-yl carbamate], for which the pIC50 at HDAC-1 is not below 6.30; on HDAC-2, not below 7.00; in the experiment with HMEC cells (Homo sapiens), not below 5.30.

With `Nc1ccccc1NC(=O)c1ccc(N2CC[C@H](NC(=O)N3CCOCC3)C2)cc1` [Compound 126, (S)-N-(1-(4-(2-Aminophenylcarbamoyl)phenyl)pyrrolidin-3-yl)morpholine-4-carboxamide], the negative-log IC50 (pIC50) against HDAC-1 was not below 6.30; against HDAC-2, not below 6.00; in the experiment on HCT116 cells (Homo sapiens, HCT-116), not below 6.00; with HMEC cells (Homo sapiens), less than 4.30.

Take `Nc1ccccc1NC(=O)c1ccc(N2CC[C@H](NC(=O)OCc3cccnc3)C2)cc1` [Compound 127, ((S)-Pyridin-3-ylmethyl-1-(4-(2-aminophenylcarbamoyl)phenyl)pyrrolidin-3-yl carbamate]: the negative-log IC50 (pIC50) on HDAC-1 was not below 6.00; on HDAC-2, not below 5.30; with HCT116 cells (Homo sapiens, HCT-116), not below 5.30; in the experiment with HMEC cells (Homo sapiens) it was less than 4.30.

On to `Nc1ccccc1NC(=O)c1ccc(N2CC[C@H](NC(=O)NCc3cccnc3)C2)cc1` [Compound 128, (S)-N-(2-Aminophenyl)-4-(3-(3-(pyridin-3-ylmethyl)ureido)pyrrolidin-1-yl)benzamide], for which the negative logarithm of the IC50 (pIC50) against HDAC-1 is not below 5.30; against HDAC-2, not below 6.00; with HCT116 cells (Homo sapiens, HCT-116) it was not below 5.30; in the experiment with HMEC cells (Homo sapiens), not below 4.30.

`COCCOC(=O)N[C@H]1CCN(c2ccc(C(=O)Nc3ccccc3N)cc2)C1` [Compound 129, (S)-2-Methoxyethyl-1-(4-(2-aminophenylcarbamoyl)phenyl)pyrrolidin-3-yl carbamate]: the negative logarithm of the IC50 (pIC50) in the experiment with HCT116 cells was not below 6.00; in the experiment with HMEC cells, not below 4.30.

Take `COCCOC(=O)N[C@@H]1CCN(c2ccc(C(=O)Nc3ccccc3N)cc2)C1` [Compound 130]: the pIC50 on HDAC-1 was not below 5.30; on HDAC-2, not below 5.30; in the experiment on HCT116 cells (Homo sapiens, HCT-116), not below 5.30.

On to `Nc1ccccc1NC(=O)c1ccc(N2CC[C@H](NC(=S)NCc3cccnc3)C2)cc1` [Compound 131, (S)-N-(2-Aminophenyl)-4-(3-(3-(pyridin-3-ylmethyl)thioureido)pyrrolidin-1-yl)benzamide], for which the pIC50 is not below 6.30 on HDAC-1; not below 5.30 at HDAC-2; not below 6.00 with HCT116 cells (Homo sapiens, HCT-116).

Take `COC(=S)N[C@H]1CCN(c2ccc(C(=O)Nc3ccccc3N)cc2)C1` [Compound 135, (S)-O-Methyl 1-(4-(2-aminophenylcarbamoyl)phenyl)pyrrolidin-3-ylcarbamothioate]: the negative logarithm of the IC50 (pIC50) against HDAC-1 is not below 7.00; at HDAC-2, not below 6.30; in the experiment with HCT116 cells (Homo sapiens, HCT-116), not below 6.30; in the experiment on HMEC cells (Homo sapiens), not below 5.00.

Turning to `Nc1ccccc1NC(=O)c1ccc(N2CC[C@H](NC(=O)OCC(F)(F)F)C2)cc1` [Compound 140, (S)-2,2,2-Trifluoroethyl 1-(4-(2-aminophenylcarbamoyl)phenyl) -pyrrolidin-3-ylcarbamate], the pIC50 against HDAC-1 is not below 6.30; at HDAC-2 it was not below 6.30; in the experiment with HCT116 cells (Homo sapiens, HCT-116), not below 6.00; with HMEC cells (Homo sapiens), not below 5.00.

Consider `CN(C)CCCOC(=O)N[C@H]1CCN(c2ccc(C(=O)Nc3ccccc3N)cc2)C1` [Compound 144, (S)-3-(Dimethylamino)propyl 1-(4-(2-aminophenylcarbamoyl)phenyl)pyrrolidin-3-yl carbamate], for which the pIC50 is not below 6.30 on HDAC-1, not below 6.30 at HDAC-2 and not below 6.00 with HCT116 cells.

In the case of `CN1CC[C@@H](OC(=O)N[C@H]2CCN(c3ccc(C(=O)Nc4ccccc4N)cc3)C2)C1` [Compound 146, (R)-1-Methylpyrrolidin-3-yl (S)-1-(4-(2-aminophenylcarbamoyl)phenyl)pyrrolidin-3-yl carbamate], the negative logarithm of the IC50 (pIC50) was not below 6.30 against HDAC-1; not below 6.30 at HDAC-2; not below 5.30 with HCT116 cells (Homo sapiens, HCT-116).

Turning to `COCCOC(=O)N[C@H]1CCN(c2ncc(C(=O)Nc3ccccc3N)cn2)C1` [Compound 151, (S)-2-Methoxyethyl 1-(5-(2-aminophenylcarbamoyl)pyrimidin-2-yl)pyrrolidin-3-ylcarbamate], the pIC50 on HDAC-1 was not below 6.00; in the experiment on HCT116 cells (Homo sapiens, HCT-116), not below 4.30.

Regarding `COCCOC(=O)N[C@H]1CCN(c2ccc(C(=O)Nc3ccccc3N)cn2)C1` [Compound 154, (S)-2-Methoxyethyl 1-(5-(2-aminophenylcarbamoyl)pyridin-2-yl)pyrrolidin-3-ylcarbamate], the pIC50 against HDAC-1 is not below 6.30; against HDAC-2 it was not below 5.30; with HCT116 cells (Homo sapiens, HCT-116) it was not below 5.30.

Consider `CC(=O)O[C@H]1CCN(c2ccc(C(=O)Nc3ccccc3N)cc2)C1` [Compound 159, (S)-1-(4-(2-Aminophenylcarbamoyl)phenyl)pyrrolidin-3-yl acetate], for which the negative-log IC50 (pIC50) against HDAC-1 was not below 6.30; against HDAC-2 it was not below 6.00.

Take `Nc1ccccc1NC(=O)c1ccc(N2CC[C@H](O)C2)cc1` [Compound 160, (S)-N-(2-Aminophenyl)-4-(3-hydroxypyrrolidin-1-yl)benzamide]: the pIC50 against HDAC-1 and against HDAC-2 was not below 6.00 throughout.

Consider `CN(C)[C@H]1CCN(c2ccc(C(=O)Nc3ccccc3N)cc2)C1` [Compound 165, (S)-N-(2-Aminophenyl)-4-(3-(dimethylamino)pyrrolidin-1-yl)benzamide], for which the pIC50 on HDAC-1 was not below 6.00; at HDAC-2, not below 5.30.

Regarding `Nc1ccccc1NC(=O)c1ccc(N2CC[C@H](NC(=O)OCCN3CCOCC3)C2)cc1` [Compound 195, (S)-2-morpholinoethyl 1-(4-(2-aminophenylcarbamoyl)-phenyl)pyrrolidin-3-ylcarbamate], the pIC50 against HDAC-1 is not below 6.30; against HDAC-2 it was not below 6.00; with HCT116 cells (Homo sapiens, HCT-116) it was not below 5.30.

On to `COC(=O)N(Cc1cccnc1)[C@H]1CCN(c2ccc(C(=O)Nc3ccccc3N)cc2)C1` [Compound 196, (S)-methyl 1-(4-(2-aminophenylcarbamoyl)phenyl)-pyrrolidin-3-yl(pyridin-3-ylmethyl)carbamate], for which the pIC50 at HDAC-1 was not below 6.30; at HDAC-2, not below 6.30; with HCT116 cells (Homo sapiens, HCT-116), not below 5.30.

For `Nc1ccccc1NC(=O)c1ccc(N2CC[C@H](NC(=O)OCC3c4ccccc4-c4ccccc43)C2)cc1` [Compound 201, (S)-(9H-fluoren-9-y)methyl 1-(4-(2-aminophenylcarbamoyl)-phenyl)pyrrolidin-3-ylcarbamate], the pIC50 against HDAC-1 is not below 7.00; against HDAC-2 it was not below 6.30.

Consider “(S)-Methyl 1-(5-(2-aminophenyl carbamoyl)pyrimidin-2-yl) pyrrolidin-3-yl carbamate [Compound 152]”, for which the pIC50 against HDAC-1 was not below 6.00; in the experiment on HCT116 cells it was not below 5.00.
